Patent US10556889B1, “Salvinorin derivatives” (Blue Sky Pharmaceuticals, LLC, priority 2018, dated 2020)
Where two headings read alike, the source gives them in different places.

What was measured:
[1] = target: T1, uOR (Mus musculus, UniProt P42866); test: β-arrestin recruitment to uOR / receptor internalization; assay type: cell-based; design: expressed in transfected cells
Text: The data provided in Tables 1A and 1B below were obtained using standard analytical techniques known to those skilled in the art. Such techniques are described in detail in C.
[…] were transiently transfected (electroporation) with combinations of cDNA for hemagglutinin (HA-N terminus)-tagged uOR, beta-arrestin2 tagged with green fluorescent protein, mouse uOR tagged at the C terminus with yellow fluorescent protein and GRK-2. […] After addition of drug, cells were visualized using confocal microscopy. Multiple cells were recorded per dish after more than four separate transfection experiments—representative cells are shown in the manuscript.
The “β-arrestin Recruitment EC50±SEM” column in Table 2 below represents the degree to which each tested compound recruited beta-arrestin to interact with uOR. As will be appreciated by those skilled in the art, EC50 refers to the concentration of a drug which induces a response halfway between the baseline and maximum after a specified exposure time. In this instance, lower values indicate greater potency of the molecule, and this is […].
As will also be understood by those skilled in the art, “Max Fold Efficacy” refers to the maximum signal/background ratio that an agonist will induce or, conversely, that an antagonist will inhibit an agonist from inducing a response. In Table 2 below, the “Max Fold Efficacy” column indicates the strength of the signal increase over the control/background measurement for uOR receptor internalization at the E.C. 50.

[2] = target: T1, uOR; test: Agonist induced ERK 1/2 phosphorylation (efficacy and potency relative to DAMGO)
[3] = maximum signal/background ratio for uOR receptor internalization at the EC50
[4] = recruitment of beta-arrestin to interact with uOR, bound given in μM, read-out: β-arrestin Recruitment EC50 ± SEM

T1 sequence (P42866 whole entry): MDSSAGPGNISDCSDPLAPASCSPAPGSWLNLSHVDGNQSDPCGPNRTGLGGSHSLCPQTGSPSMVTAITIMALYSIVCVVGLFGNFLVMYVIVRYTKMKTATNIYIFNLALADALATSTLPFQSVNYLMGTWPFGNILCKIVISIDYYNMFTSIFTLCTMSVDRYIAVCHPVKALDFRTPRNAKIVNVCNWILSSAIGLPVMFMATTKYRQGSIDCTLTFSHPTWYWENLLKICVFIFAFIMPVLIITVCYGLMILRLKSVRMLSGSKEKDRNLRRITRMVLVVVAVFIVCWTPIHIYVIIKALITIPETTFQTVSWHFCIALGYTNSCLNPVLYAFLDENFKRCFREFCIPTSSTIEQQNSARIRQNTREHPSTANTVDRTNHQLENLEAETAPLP

Molecule | EC50 [1] [µM] | Max Fold Efficacy [1, 3] | EC50 [2] [µM] | EC50 [1, 4] [µM] | Max Fold Efficacy [1]
COC(=O)[C@@H]1C[C@H](NC(=O)c2ccccc2)C(=O)[C@H]2[C@@]1(C)CC[C@H]1C(=O)O[C@H](c3ccoc3)C[C@]21C | 9.19 ± 2.75 | 21.73 | 0.000232 |  | 
COC(=O)[C@@H]1C[C@H](OC(=O)c2ccc(C(F)(F)F)cc2)C(=O)[C@H]2[C@@]1(C)CC[C@H]1C(=O)O[C@H](c3ccoc3)C[C@]21C |  |  | 0.93 | > 10 | 
COC(=O)[C@@H]1C[C@H](OC(=O)c2ccccc2)C(=O)[C@H]2[C@@]1(C)CC[C@H]1C(=O)O[C@H](c3ccoc3)C[C@]21C |  | 2.4 | 1.11 | > 10 | 
COC(=O)[C@@H]1C[C@H](OC(=O)Nc2ccccc2)C(=O)[C@H]2[C@@]1(C)CC[C@H]1C(=O)O[C@H](c3ccoc3)C[C@]21C |  |  | 1.2 | > 10 | 
COC(=O)[C@@H]1C[C@H](OC(=O)c2ccc(F)cc2)C(=O)[C@H]2[C@@]1(C)CC[C@H]1C(=O)O[C@H](c3ccoc3)C[C@]21C |  | 2.2 | 1.64 | > 10 | 
COC(=O)[C@@H]1C[C@H](OC(=O)Nc2ccc(Cl)c(Cl)c2)C(=O)[C@H]2[C@@]1(C)CC[C@H]1C(=O)O[C@H](c3ccoc3)C[C@]21C |  |  | 1.85 | > 10 | 
COC(=O)[C@@H]1C[C@H](OC(=O)Nc2ccc(SC(F)(F)F)cc2)C(=O)[C@H]2[C@@]1(C)CC[C@H]1C(=O)O[C@H](c3ccoc3)C[C@]21C |  |  | 2.3 | > 10 | 
COC(=O)[C@@H]1C[C@H](OC(=O)c2ccc(OC)cc2)C(=O)[C@H]2[C@@]1(C)CC[C@H]1C(=O)O[C@H](c3ccoc3)C[C@]21C |  | 3.1 | 3.5 | > 10 | 
COC(=O)[C@@H]1C[C@H](NC(=O)Nc2ccc(C#N)cc2)C(=O)[C@H]2[C@@]1(C)CC[C@H]1C(=O)O[C@H](c3ccoc3)C[C@]21C |  |  | 4.29 | > 10 | 
COC(=O)[C@@H]1C[C@H](NC(=O)NS(=O)(=O)c2ccc(Cl)cc2)C(=O)[C@H]2[C@@]1(C)CC[C@H]1C(=O)O[C@H](c3ccoc3)C[C@]21C |  |  | > 10 | > 10 | 
CCc1ncc(C(=O)O[C@H]2C[C@@H](C(=O)OC)[C@]3(C)CC[C@H]4C(=O)O[C@H](c5ccoc5)C[C@]4(C)[C@H]3C2=O)cn1 |  | 5.1 | 0.917 | > 10 | 
COC(=O)[C@@H]1C[C@H](OC(=O)c2cnc(C)cn2)C(=O)[C@H]2[C@@]1(C)CC[C@H]1C(=O)O[C@H](c3ccoc3)C[C@]21C |  | 1.8 | 1.28 | > 10 | 
COC(=O)[C@@H]1C[C@H](OC(=O)Nc2ncc(C)s2)C(=O)[C@H]2[C@@]1(C)CC[C@H]1C(=O)O[C@H](c3ccoc3)C[C@]21C |  |  | 1.28 | > 10 | 
COC(=O)[C@@H]1C[C@H](OC(=O)c2cc(C)on2)C(=O)[C@H]2[C@@]1(C)CC[C@H]1C(=O)O[C@H](c3ccoc3)C[C@]21C |  | 1.3 | 1.75 | > 10 | 
COC(=O)[C@@H]1C[C@H](OC(=O)c2ccon2)C(=O)[C@H]2[C@@]1(C)CC[C@H]1C(=O)O[C@H](c3ccoc3)C[C@]21C |  | 1 | 3.78 | > 10 | 
COC(=O)[C@@H]1C[C@H](OC(=O)c2nc(C)co2)C(=O)[C@H]2[C@@]1(C)CC[C@H]1C(=O)O[C@H](c3ccoc3)C[C@]21C |  |  | 5.99 | > 10 | 
CCc1ncc(NC(=O)O[C@H]2C[C@@H](C(=O)OC)[C@]3(C)CC[C@H]4C(=O)O[C@H](c5ccoc5)C[C@]4(C)[C@H]3C2=O)cn1 |  |  | 7.46 | > 10 | 
COC(=O)[C@@H]1C[C@H](OC(=O)Nc2ccc(C#N)cc2)C(=O)[C@H]2[C@@]1(C)CC[C@H]1C(=O)O[C@H](c3ccoc3)C[C@]21C [Formula Ia-i] | 9.85 ± 0.153 | 9.5 | 0.0355 |  | 

Molecule | EC50 [1] [µM] | Max Fold Efficacy [1, 3] | EC50 [2] [µM] | EC50 [1, 4] [µM] | Max Fold Efficacy [1]
COC(=O)[C@@H]1C[C@H](OC(=O)Nc2ccc(C)cc2)C(=O)[C@H]2[C@@]1(C)CC[C@H]1C(=O)O[C@H](c3ccoc3)C[C@]21C [Formula Ia-ii] |  | 8.8 | 0.108 | > 10 | 
COC(=O)[C@@H]1C[C@H](OC(=O)Nc2ccc(Cl)cc2)C(=O)[C@H]2[C@@]1(C)CC[C@H]1C(=O)O[C@H](c3ccoc3)C[C@]21C [Formula Ia-iii] |  | 7.6 | 0.146 | > 10 | 
COC(=O)[C@@H]1C[C@H](OC(=O)Nc2ccc(F)cc2)C(=O)[C@H]2[C@@]1(C)CC[C@H]1C(=O)O[C@H](c3ccoc3)C[C@]21C [Formula Ia-iv] |  | 4.3 | 0.156 | > 10 | 
COC(=O)[C@@H]1C[C@H](OC(=O)Nc2ccc(OC(F)F)cc2)C(=O)[C@H]2[C@@]1(C)CC[C@H]1C(=O)O[C@H](c3ccoc3)C[C@]21C [Formula Ia-v] |  | 9.5 | 0.163 | > 10 | 
COC(=O)[C@@H]1C[C@H](OC(=O)Nc2ccc(C(F)(F)F)cc2)C(=O)[C@H]2[C@@]1(C)CC[C@H]1C(=O)O[C@H](c3ccoc3)C[C@]21C [Formula Ia-vi] |  | 5.1 | 0.327 | > 10 | 
COC(=O)[C@@H]1C[C@H](OC(=O)Nc2ccc(F)c(F)c2)C(=O)[C@H]2[C@@]1(C)CC[C@H]1C(=O)O[C@H](c3ccoc3)C[C@]21C [Formula Ia-vii] |  | 2.2 | 0.412 | > 10 | 
COC(=O)[C@@H]1C[C@H](OC(=O)Nc2ccc(Cl)cc2F)C(=O)[C@H]2[C@@]1(C)CC[C@H]1C(=O)O[C@H](c3ccoc3)C[C@]21C [Formula Ia-viii] |  | 2.3 | 0.522 | > 10 | 
COC(=O)[C@@H]1C[C@H](NC(=O)NC(=O)c2ccccc2)C(=O)[C@H]2[C@@]1(C)CC[C@H]1C(=O)O[C@H](c3ccoc3)C[C@]21C [Formula Ib-i] |  | 3.14 | 0.61 | > 10 | 
COC(=O)[C@@H]1C[C@H](OC(=O)NC(=O)c2ccccc2)C(=O)[C@H]2[C@@]1(C)CC[C@H]1C(=O)O[C@H](c3ccoc3)C[C@]21C [Formula Ib-ii] |  | 4.8 | 0.633 | > 10 | 
COC(=O)[C@@H]1C[C@H](OC(=O)Nc2csc(C)n2)C(=O)[C@H]2[C@@]1(C)CC[C@H]1C(=O)O[C@H](c3ccoc3)C[C@]21C [Formula Ic-i] | 2.07 ± 0.649 | 31.3 | 0.000854 |  | 
COC(=O)[C@@H]1C[C@H](OC(=O)Nc2nc(C)cs2)C(=O)[C@H]2[C@@]1(C)CC[C@H]1C(=O)O[C@H](c3ccoc3)C[C@]21C [Formula Ic-ii] |  | 3.8 | 0.0252 | > 10 | 
COC(=O)[C@@H]1C[C@H](OC(=O)Nc2cnc(C)cn2)C(=O)[C@H]2[C@@]1(C)CC[C@H]1C(=O)O[C@H](c3ccoc3)C[C@]21C [Formula Ic-iii] |  | 9.5 | 0.0357 | > 10 | 
COC(=O)[C@@H]1C[C@H](OC(=O)Nc2cnc(C)nc2)C(=O)[C@H]2[C@@]1(C)CC[C@H]1C(=O)O[C@H](c3ccoc3)C[C@]21C [Formula Ic-iv] |  | 2.8 | 0.0791 | > 10 | 
COC(=O)[C@@H]1C[C@H](OC(=O)Nc2cc(C)on2)C(=O)[C@H]2[C@@]1(C)CC[C@H]1C(=O)O[C@H](c3ccoc3)C[C@]21C [Formula Ic-v] |  | 2.4 | 0.118 | > 10 | 
COC(=O)[C@@H]1C[C@H](OC(=O)c2cnc(C)nc2)C(=O)[C@H]2[C@@]1(C)CC[C@H]1C(=O)O[C@H](c3ccoc3)C[C@]21C [Formula Id-i] |  | 4.2 | 0.00285 | > 10 | 
COC(=O)[C@@H]1C[C@H](OC(=O)c2ccc(Cl)nc2)C(=O)[C@H]2[C@@]1(C)CC[C@H]1C(=O)O[C@H](c3ccoc3)C[C@]21C [Formula Id-ii] |  | 9.3 | 0.373 | > 10 | 
COC(=O)[C@@H]1C[C@H](OC(=O)c2cc(C)cs2)C(=O)[C@H]2[C@@]1(C)CC[C@H]1C(=O)O[C@H](c3ccoc3)C[C@]21C [Formula Id-iii] |  | 6.1 | 0.377 | > 10 | 
Met-Enkephalin [reference compound] |  |  |  |  | 38.3
